One may read the EC50 as the concentration needed to bring the measured effect to its halfway point. Read a high EC50 as weaker potency.

The source of these data is patent US10487084B2, “Toll-like receptor 7 (TLR7) agonists having a heterobiaryl moiety, conjugates thereof, and methods and uses therefor” (BRISTOL-MYERS SQUIBB COMPANY, priority 2017, dated 2019).

In one assay the target is human TLR7 (Homo sapiens (Human), UniProt Q9NYK1). The experiment in a line: HEK-Blue TLR7 reporter assay (TLR7 agonism). Type of assay: cell-based. The settings on record: HEK-Blue TLR7 cells, SEAP reporter, 18 h treatment. How it is done: This example describes a method for assaying TLR7 agonist activity of the compounds disclosed in this specification.
HEK-Blue™ TLR7 cells were added to each well of a 384-well tissue-culture plate (15,000 cells per well) and incubated 16-18 h at 37° C., 5% CO2. Compounds (100 nl) were dispensed into wells containing the HEK-Blue™ TLR cells and the treated cells were incubated at 37° C., 5% CO2. After 18 h treatment ten microliters of freshly-prepared Quanti-Blue™ reagent (Invivogen) was added to each well, incubated for 30 min (37° C., 5% CO2) and SEAP levels measured using an Envision plate reader (OD=620 nm).

A further assay concerns interleukin 6 (IL-6). The experiment in a line: Interleukin 6 induction assay in human whole blood. Type of assay: cell-based. The settings on record: 37° C. for 20 h, AlphaLISA. How it is done: This example describes a method for assaying interleukin 6 induction by compounds disclosed in this specification.
Compounds diluted in DMSO were transferred to individual wells of a Matrix Tech-nologies clear, V-bottom 384-well plate using ECHO acoustic liquid handling technology (25 nL per well). Human whole-blood samples (25 uL) were added to each well using a CyBio FeliX liquid handling instrument. The plate was shaken on a plate shaker for three min before incubating the reaction mixtures at 37° C. for 20 h. Basel RPMI 1640 medium (supplemented with L-glutamine) was then added to each well (25 uL per well) prior to liberating plasma from each sample by centrifugation (450×g, 5 min, ambient temperature). Treated plasma samples (3 uL) were subsequently transferred to individual wells of a white, shallow, 384-well ProxiPlate (Perkin Elmer) using the FeliX liquid handling instrument and their interleukin 6 levels were measured using AlphaLISA technology as described by the manufacturer, PerkinElmer. Data analyses software was used to determine compound EC50 values where the baseline was established using average DMSO values and 100% induction established using reference compound values at the highest concentration tested. EC50's can be determined with software such as Graphpad Prism™.

For the next assay, the system named is IFN-α. The settings on record: fold lower potency vs corresponding purine-8-one compound; cited from earlier work.

Sequence of human TLR7 (Q9NYK1 27-1049): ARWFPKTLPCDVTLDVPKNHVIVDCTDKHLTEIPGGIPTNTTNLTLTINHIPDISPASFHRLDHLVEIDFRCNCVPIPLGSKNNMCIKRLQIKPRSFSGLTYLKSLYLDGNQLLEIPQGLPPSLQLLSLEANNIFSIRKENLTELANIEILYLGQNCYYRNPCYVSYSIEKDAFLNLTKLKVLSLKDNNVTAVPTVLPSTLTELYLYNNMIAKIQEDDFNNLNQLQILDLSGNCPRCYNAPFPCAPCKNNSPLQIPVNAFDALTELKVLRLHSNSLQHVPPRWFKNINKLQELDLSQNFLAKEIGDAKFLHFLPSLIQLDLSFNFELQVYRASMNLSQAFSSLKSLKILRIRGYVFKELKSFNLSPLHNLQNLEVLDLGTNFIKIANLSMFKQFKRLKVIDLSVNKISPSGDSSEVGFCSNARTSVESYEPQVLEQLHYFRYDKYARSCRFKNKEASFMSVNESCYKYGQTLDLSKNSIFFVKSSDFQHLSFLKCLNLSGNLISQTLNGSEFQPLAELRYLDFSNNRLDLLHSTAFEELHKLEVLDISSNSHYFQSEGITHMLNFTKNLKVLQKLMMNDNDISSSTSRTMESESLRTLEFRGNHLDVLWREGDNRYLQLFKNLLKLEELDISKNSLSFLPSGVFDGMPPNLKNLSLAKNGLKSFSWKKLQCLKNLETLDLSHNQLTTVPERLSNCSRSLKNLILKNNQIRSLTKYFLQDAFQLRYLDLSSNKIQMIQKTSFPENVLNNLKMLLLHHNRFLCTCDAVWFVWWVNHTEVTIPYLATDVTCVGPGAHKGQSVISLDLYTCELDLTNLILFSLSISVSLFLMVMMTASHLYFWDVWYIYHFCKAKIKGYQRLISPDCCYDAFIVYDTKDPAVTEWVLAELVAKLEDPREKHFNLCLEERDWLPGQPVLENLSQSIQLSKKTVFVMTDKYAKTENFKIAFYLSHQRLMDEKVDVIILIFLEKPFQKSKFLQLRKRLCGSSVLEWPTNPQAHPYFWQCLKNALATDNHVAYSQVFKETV

On to `CCCCOc1nc(N)c2nc(O)n(Cc3ccc(-c4cnn(C5CNC5)c4)cc3)c2n1` [Ia-03], for which the 50% effective concentration (EC50) on human TLR7 stood at 26 nM; in the assay with interleukin 6 (IL-6) it was 15 nM.
For `CCCCOc1nc(N)c2nc(O)n(Cc3ccc(-c4cnn(CCO)c4)cc3)c2n1` [Ia-01], in that order: 16 nM and 108 nM.
As to `CCCCOc1nc(N)c2c(n1)N(Cc1cccc(CN3CCCC3)c1)CC(=O)N2` [Vesatolimod, vesatolimod], the “potency less than that of the corresponding purine-8-one compound, as measured by IFN-α induction” value with IFN-α is 100 ×.
In turn, `CCCCOc1nc(N)c2nc(O)n(Cc3ccc(-c4csc(CN)c4)cc3)c2n1` [Ib-01] showed an EC50 in the assay with interleukin 6 (IL-6) of 106 nM.
In the case of `CCCCOc1nc(N)c2nc(O)n(Cc3ccccc3)c2n1` [Compound B, reference compound], the 50% effective concentration (EC50) on human TLR7 was 474 nM.
On to `CCCCOc1nc(N)c2nc(O)n(Cc3ccc(-c4nc(CO)co4)cc3)c2n1` [Ic-01], for which the EC50 was found to be 99 nM at human TLR7 and 365 nM in the assay with interleukin 6 (IL-6).
As for `CCCCOc1nc(N)c2nc(O)n(Cc3ccc(-c4csc(CN)c4)nc3)c2n1` [Ib-02], the EC50 in the assay on interleukin 6 (IL-6) worked out at 7.55 nM.
As to `CCCCOc1nc(N)c2nc(O)n(Cc3ccc(-c4cnn(CCNC5CCC5)c4)cc3)c2n1` [Ia-04], the half-maximal effective concentration (EC50) stood at 7.5 nM at human TLR7 and 6.9 nM with interleukin 6 (IL-6).
As for `CCCCOc1nc(N)c2nc(O)n(Cc3ccc(-c4cnn(CC(=O)NC5CNC5)c4)cc3)c2n1` [Ia-06], the half-maximal effective concentration (EC50) at human TLR7 amounted to 24 nM; in the assay on interleukin 6 (IL-6) it was 88.7 nM.
